Patent US9855338B2, “Polyglutamate-amino acid conjugates and methods” (priority 2005, dated 2018)
Like-named read-outs stand apart in the source and are kept apart here.

How the values were obtained:
[1] = Protocol: Each polymer (5 mg) was added into a pH buffer (1 mL) and the mixture was sonificated for 2 minutes. Then the mixture was allowed to settle at room temperature for 30 minutes. Solubility was observed by eye and recorded on the scale of 1 to 10, where 1 is highly insoluble, 5 is a cloudy suspension, and 10 is a highly clear solution.
B16F0 melanoma cells = experiment: In vitro cellular uptake, fluorescence microscopy; format: cell-based, murine
Protocol: B16F0 cells were purchased from ATCC (CRL-6322, ATCC American Type Culture Collection, Rockville, Md.) and were grown in Dulbecco's modified Eagle's medium (DMEM) with 10% fetal bovine serum and 100 units/mL penicillin. The cells were grown at 37° C. in 5% CO2 environment. The culture medium was removed and discarded. The cells were rinsed with Dulbecco Phosphate Buffer Solution (DPBS), Trypsin-ethylenediaminetetra-acetic acid (EDTA) solution (0.5 ml) was added, and the cells were observed under an inverted microscope to make sure that they were dispersed. Complete growth medium (6.0 to 8.0 ml) was added, and the cells were aspirated by gently pipetting. The cell suspension in appropriate aliquots was transferred to new culture plates. […]
PGA-97-A-Texas Red and Texas Red dye (TR) were separately dissolved in DPBS. […] The treated cells were examined under an OLYMPUS fluorescence microscope, and the excitation and emission wavelengths were measured at 591 and 612 nm, respectively.
Three sample containers containing approximately the same number of B16F0 melanoma cells were incubated with PGA-97-A-Texas Red at 1 μM, PGA-97-A-Texas Red at 0.1 μM, and Texas Red alone at 10 μM, respectively, for 24 hours. Photographs of the in vitro cellular uptake of each container were taken with the camera on an Olympus fluorescence microscope system. […]

[2] = tested on: murine melanoma cells (B16F0) tumor; experiment: In vivo tumor tissue uptake, syngeneic tumor model, cryostat sections; conditions: 24 hours after intravenous administration, nu/nu mice
Protocol: Animals: Nu/nu mice, female, 6-8 weeks (22-25 g). Solitary tumors were produced by injecting 2×10^5 murine melanoma cells (B16F0) to the right thigh subcutaneously. 5-7 days later when the tumor reached about 500 mm^3, the PGA-97-A-Texas Red or Texas Red dye was injected intravenously to the tumor.
PGA-97-A-Texas Red and Texas Red were separately dissolved in DPBS and were filtrated through a 0.2 μm filter before being administrated to the animals. 100 μl of PGA-97-A-Texas Red (TR loading at 2.5%) or Texas Red at 0.1-10 mM was intravenously injected to the tumor using the syngeneic tumor model in Example 19. Tumors were dissected, embedded under optimal cutting temperature and frozen in liquid nitrogen. Cryostat sections (6-15 μm) were made and were fixed with 4% paraformaldehyde with 0.03M of sucrose on ice for 10-30 min. The sections were washed 2 times with DPBS, stained with Hoechst 33342 (1 μg/ml) for 10 minutes, and washed again with DPBS. The sections were then mounted with a fluorescent mounting medium (DakoCytomation) and covered with a coverslip. The cryostat sections of the tumor were observed under laser scan confocal microscopy.
Photographs of the cryostat cross-section of in vivo tumor tissue uptake of PGA-97-A-Texas Red and Texas Red dye alone were taken. For each, three different cross-sections were taken for a total of six images. […]

In the case of “Poly-(γ-glutamyl)-poly-L-glutamine [PGPG-19,800]”, the Solubility ([1]; pH 2) is reported as 10, the Solubility ([1]; pH 3) is reported as 10 and the Solubility ([1]; pH 4) is reported as 10. For the same substance, the Solubility ([1]; pH 5) was 10, the Solubility ([1]; pH 6) was 10 and the Solubility ([1]; pH 7) was 10. The Solubility ([1]; pH 7.4) was 10.

For Texas Red, the “cellular uptake of Texas red dye” value (B16F0 melanoma cells; 0.1 μM to 10 μM, 8-24 hours, fluorescence microscope) was “not”, the “cells that were red (cellular uptake of dye)” value (B16F0 melanoma cells; 10 μM, 24 hours, B16F0 melanoma cells) was 0% and the “accumulation of Texas red dye in tumor cells in vivo” value [2] was “not”.
